This assay deals with T1, purified porcine tubulin (Sus scrofa, UniProt P02550+P02554).
T1 construct: purchased Cytoskeleton, Denver, CO, USA BK006P
Briefly: Tubulin polymerization assay. Type of assay: biochemical. Conditions: 10 µM, absorbance at 340 nm, 35°C. The procedure: A tubulin polymerization assay kit (part# BK006P, Cytoskeleton, Denver, CO, USA) was used to address the direct effects of chemical compounds on tubulin polymerization dynamics. A porcine >99% pure tubulin preparation (3 mg/ml) free of microtubule-associated proteins in 80 mM PIPES pH 6.9, 2 mM MgCl2, 0.5 mM EGTA, 1 mM GTP, and 10.2% glycerol was incubated with Formula A-1 (100 µM), Formula A-2(100 µM), paclitaxel (10 µM), or buffer. Microtubule polymerization was initiated by tubulin addition; changes in microtubule turbidity were measured kinetically at 340 nm at 35°C (EnSpire Multimode Plate Reader 2300, PerkinElmer).
To determine whether the influence of compounds of Formula A-1 and Formula A-2 on microtubule formation was due to on-target activity, the direct effect of chalcone compounds of Formula A on tubulin polymerization rates was examined by incubation of purified porcine tubulin with Formula A-1 or Formula A-2 and comparison of the results with those of paclitaxel, a well-established microtubule-stabilizing agent. Microtubule formation was measured kinetically at an absorbance of 340 nm.

T1 sequence (P02550 whole entry): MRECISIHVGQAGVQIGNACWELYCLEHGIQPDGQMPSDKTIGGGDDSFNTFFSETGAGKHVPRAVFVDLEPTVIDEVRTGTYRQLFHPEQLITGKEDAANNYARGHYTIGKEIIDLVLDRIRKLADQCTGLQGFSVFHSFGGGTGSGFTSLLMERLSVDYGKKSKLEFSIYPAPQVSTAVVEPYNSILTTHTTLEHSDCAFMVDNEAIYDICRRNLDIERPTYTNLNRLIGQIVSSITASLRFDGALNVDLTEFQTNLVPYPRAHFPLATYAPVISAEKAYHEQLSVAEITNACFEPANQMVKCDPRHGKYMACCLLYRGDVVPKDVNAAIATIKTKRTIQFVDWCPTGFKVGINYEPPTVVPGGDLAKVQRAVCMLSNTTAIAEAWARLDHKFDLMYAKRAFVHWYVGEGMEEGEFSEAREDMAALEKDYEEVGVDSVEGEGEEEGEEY
T1 sequence (P02554 whole entry): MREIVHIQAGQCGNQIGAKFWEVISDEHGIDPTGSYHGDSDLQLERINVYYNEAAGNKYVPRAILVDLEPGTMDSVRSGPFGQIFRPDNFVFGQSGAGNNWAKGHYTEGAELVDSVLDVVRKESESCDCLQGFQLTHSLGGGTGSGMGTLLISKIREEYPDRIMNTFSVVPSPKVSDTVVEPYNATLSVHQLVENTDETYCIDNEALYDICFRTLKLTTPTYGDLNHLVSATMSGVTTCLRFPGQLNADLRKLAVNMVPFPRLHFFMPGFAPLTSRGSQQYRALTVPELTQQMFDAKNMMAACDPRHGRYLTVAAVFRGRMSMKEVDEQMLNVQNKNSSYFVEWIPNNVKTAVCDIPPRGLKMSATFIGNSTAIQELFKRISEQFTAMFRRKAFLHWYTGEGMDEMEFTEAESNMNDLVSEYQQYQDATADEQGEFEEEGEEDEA

As for `CC(=O)O[C@H]1C(=O)[C@@]2(C)[C@H]([C@H](OC(=O)c3ccccc3)[C@]3(O)C[C@H](OC(=O)[C@H](O)[C@@H](NC(=O)c4ccccc4)c4ccccc4)C(C)=C1C3(C)C)[C@]1(OC(C)=O)CO[C@@H]1C[C@@H]2O` [paclitaxel], the tubulin polymerization result is “the kinetics of tubulin polymerization is enhanced and the polymerization equilibrium shifts towards polymerized tubulin”.

The record behind these values is patent EP4417201A1, “PHARMACEUTICAL COMPOSITIONS FOR USE IN CANCER TREATMENT” (Robert Bosch Gesellschaft für medizinische Forschung mbH, priority 2023, dated 2024).
